Experimental data reported in patent US6951751B2, “DNA and amino acid sequences of a tyrosine-inducible tyrosine ammonia lyase enzyme from the yeast Trichosporon cutaneum” (E. I. du Pont de Nemours and Company, priority 2002, dated 2005).
Where two headings read alike, the source gives them in different places.

Legend:
Assay type in all cases: biochemical
[1] = tested on: Sporidobolus pararoseus (ATCC No. 11386) PAL/TAL enzyme; assay: PAL/TAL enzyme kinetics in cell-free extract, S. pararoseus ATCC 11386
Text: (§1) The yeast strains: Rhodotorula rubra (ATCC No. 889), Saccharomycopsis fibuligera (ATCC No. 2080), Rhodosporidium toruloides (ATCC No. 10788), Sporidobolus pararoseus (ATCC No. 11386), Sporidiobolus ruinenii (ATCC No. 20489), Rhodotorula graminis (ATCC No. 20804), Rhodotorula minuta (ATCC No. 32769), Trichosporon cutaneum (ATCC No. 46446), and Trichosporon cutaneum (ATCC No. 58094) were obtained from the American Type Culture Collection (ATCC, Manassas, Va.). These yeast strains were streaked out from glycerol stock onto nutrient agar plates and grown at 30° C. Single colonies were then selected and transferred to 50 mL of Dagley's medium (Sparnins, et al, J. Bact. 138:425-430 (1979)) supplemented with 0.1 g/L of tyrosine, phenylalanine or succinate. Alternatively, a minimal media, consisting of 1.61 g/L of K2HPO4, 5.55 g/L of KH2PO4, 0.1 g/L MgSO4, 0.01 g/L of biotin, with a pH of 6.2 and supplemented with 0.5 g/L of tyrosine, was used. The cells were grown up at 30° C. on a shaker at ˜250 rpm to an OD between 1.0 and 2.0 at 600 nm. The cells were then pelleted by centrifugation and resuspended in 1.0 mL of 50 mM Tris-HCl buffer, pH 8.5.
(§2) The cells were washed and then resuspended in 50 mM Tris-HCl buffer, pH 8.5, containing 1.0 μg/mL of both leupeptin and pepstatin A, 0.5 mM of PMSF (phenylmethylsulfonyl fluoride) and a small amount of DNase. The cells were then passed twice through a French Pressure Cell at 18,000 psi and the debris was removed by centrifugation at 38,720×g for 20 min at 4° C. The supernatant was then used as the crude cell free extract for enzyme assays.
(§3) Protein concentrations were determined using the Bradford method (Anal. Biochem. 72:248-254 (1976)). The Coomassie solution was mixed with varying amounts of the cell free extracts and the OD at 595 nm was measured.
(§4) For PAL activity, cinnamate formation was monitored at 290 nm using a molar extinction coefficient of 9000 cm-1. One unit of activity deaminates 1.0 μmol of phenylalanine to cinnamate in one min. For TAL activity, PHCA formation was monitored at 315 nm (extinction coefficient of 10,000 cm-1). One unit of activity deaminates 1.0 μmol of tyrosine to PHCA in one min.

[2] = tested on: Rhodotorula graminis (ATCC No. 20804) PAL/TAL enzyme; assay: PAL/TAL enzyme kinetics in cell-free extract, R. graminis ATCC 20804
Text: as §1, §2, §3, §4

[3] = tested on: Trichosporon cutaneum (ATCC No. 46446) PAL/TAL enzyme; assay: PAL/TAL enzyme kinetics in cell-free extract, T. cutaneum ATCC 46446
Text: as §1, §2, §3, §4

[4] = tested on: Trichosporon cutaneum (ATCC No. 58094) tyrosine ammonia lyase (TAL), wild type, SEQ ID NO:25; assay: PAL/TAL enzyme kinetics in cell-free extract, T. cutaneum ATCC 58094
Text: as §1, §2, §3, §4

[5] = tested on: Sporidiobolus ruinenii (ATCC No. 20489) PAL/TAL enzyme; assay: PAL/TAL enzyme kinetics in cell-free extract, S. ruinenii ATCC 20489
Text: as §1, §2, §3, §4

[6] = tested on: Rhodotorula minuta (ATCC No. 32769) PAL/TAL enzyme; assay: PAL/TAL enzyme kinetics in cell-free extract, R. minuta ATCC 32769
Text: as §1, §2, §3, §4

[7] = tested on: Saccharomycopsis fibuligera (ATCC No. 2080) PAL/TAL enzyme; assay: PAL/TAL enzyme kinetics in cell-free extract, S. fibuligera ATCC 2080
Text: as §1, §2, §3, §4

[8] = target: T1, R. glutinis (Rhodosporidium toruloides, ATCC No. 10788) PAL/TAL enzyme (Rhodotorula toruloides, UniProt P11544); assay: PAL/TAL enzyme kinetics in cell-free extract, R. glutinis (R. toruloides) ATCC 10788; settings: Vmax/Km for phenylalanine relative to tyrosine
T1 sequence (P11544 1-716): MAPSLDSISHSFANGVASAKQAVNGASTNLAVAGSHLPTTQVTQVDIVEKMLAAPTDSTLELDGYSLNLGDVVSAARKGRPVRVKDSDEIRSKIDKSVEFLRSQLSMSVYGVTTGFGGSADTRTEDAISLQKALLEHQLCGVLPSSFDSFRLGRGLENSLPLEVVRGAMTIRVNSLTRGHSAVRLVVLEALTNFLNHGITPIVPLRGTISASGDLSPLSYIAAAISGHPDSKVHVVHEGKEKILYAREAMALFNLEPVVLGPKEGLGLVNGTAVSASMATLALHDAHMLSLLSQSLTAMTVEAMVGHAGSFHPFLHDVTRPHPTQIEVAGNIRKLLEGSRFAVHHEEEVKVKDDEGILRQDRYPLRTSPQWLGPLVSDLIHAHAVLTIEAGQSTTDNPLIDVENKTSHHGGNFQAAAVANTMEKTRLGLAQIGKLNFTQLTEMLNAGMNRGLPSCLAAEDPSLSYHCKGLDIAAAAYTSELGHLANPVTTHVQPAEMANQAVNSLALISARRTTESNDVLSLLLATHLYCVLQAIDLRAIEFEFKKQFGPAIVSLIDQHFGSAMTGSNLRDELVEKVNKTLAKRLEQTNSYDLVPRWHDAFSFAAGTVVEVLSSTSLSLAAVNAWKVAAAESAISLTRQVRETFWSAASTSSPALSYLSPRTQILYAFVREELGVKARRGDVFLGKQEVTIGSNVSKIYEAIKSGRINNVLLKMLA
Text: as §1, with “The cells were grown up at 30° C. on a shaker at ˜250 rpm to an OD between 1.0 and 2.0 at 600 nm. The cells were then pelleted by centrifugation and resuspended in 1.0 mL of 50 mM Tris-HCl buffer, pH 8.5.” left out
as §3
(§5) For PAL activity, cinnamate formation was monitored at 290 nm using a molar extinction coefficient of 9000 cm-1. […] For TAL activity, PHCA formation was monitored at 315 nm (extinction coefficient of 10,000 cm-1). […]

[9] = target: T2, Rhodotorula rubra (ATCC No. 889) PAL/TAL enzyme (Rhodotorula mucilaginosa, UniProt P10248); assay: PAL/TAL enzyme kinetics in cell-free extract, R. rubra ATCC 889; settings: Vmax/Km for phenylalanine relative to tyrosine
T2 sequence (P10248 1-713): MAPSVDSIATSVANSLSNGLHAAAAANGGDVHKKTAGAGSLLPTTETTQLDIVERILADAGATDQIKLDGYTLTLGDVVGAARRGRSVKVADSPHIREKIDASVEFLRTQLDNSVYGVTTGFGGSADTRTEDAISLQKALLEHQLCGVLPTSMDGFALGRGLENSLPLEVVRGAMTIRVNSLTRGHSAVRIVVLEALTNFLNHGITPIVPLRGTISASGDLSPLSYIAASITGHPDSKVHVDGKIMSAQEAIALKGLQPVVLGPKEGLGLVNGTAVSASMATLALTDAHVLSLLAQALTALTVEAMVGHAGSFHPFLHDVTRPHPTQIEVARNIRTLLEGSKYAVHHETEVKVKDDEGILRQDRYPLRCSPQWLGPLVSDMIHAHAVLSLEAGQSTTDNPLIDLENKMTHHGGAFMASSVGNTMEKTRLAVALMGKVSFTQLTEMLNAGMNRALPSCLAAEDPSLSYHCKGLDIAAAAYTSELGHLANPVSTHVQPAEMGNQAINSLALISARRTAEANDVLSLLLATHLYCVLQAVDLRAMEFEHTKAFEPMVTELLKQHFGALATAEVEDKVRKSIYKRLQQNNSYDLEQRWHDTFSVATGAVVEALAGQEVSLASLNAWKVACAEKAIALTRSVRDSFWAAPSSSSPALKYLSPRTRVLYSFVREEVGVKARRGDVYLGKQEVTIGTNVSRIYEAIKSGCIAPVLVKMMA
Text: as §1, with “The cells were grown up at 30° C. on a shaker at ˜250 rpm to an OD between 1.0 and 2.0 at 600 nm. The cells were then pelleted by centrifugation and resuspended in 1.0 mL of 50 mM Tris-HCl buffer, pH 8.5.” left out
as §3, §5

[10] = apparent, tyrosine as substrate, cell-free extract, pH 8.5
[11] = apparent, tyrosine as substrate, cell-free extract, pH 8.5, read-out: Km (TAL)
[12] = Vmax/Km for phenylalanine relative to tyrosine
[13] = apparent, phenylalanine as substrate, cell-free extract, pH 8.5
[14] = apparent, phenylalanine as substrate, cell-free extract, pH 8.5, read-out: Km (PAL)

Structure (SMILES): N[C@@H](Cc1ccc(O)cc1)C(=O)O [L-tyrosine]
- Vmax (TAL) [1, 10]: 0.033 U/mg
- Km [1, 11]: 327 µM
- Vmax (TAL) [2, 10]: 0.044 U/mg
- Km [2, 11]: 154 µM
- Vmax (TAL) [3, 10]: 0.013 U/mg
- Km [3, 11]: 13.1 mM
- Km [4, 11]: 0.431 mM
- Vmax (TAL) [5, 10]: 0.004 U/mg
- Km [5, 11]: 264 µM
- Vmax (TAL) [6, 10]: 0.011 U/mg
- Km [6, 11]: 212 µM
- Vmax (TAL) [7, 10]: 0.002 U/mg
- Km [7, 11]: 156 µM

Structure (SMILES): N[C@@H](Cc1ccccc1)C(=O)O [L-phenylalanine]
- Ratio PAL/TAL [8]: 2.20
- Ratio PAL/TAL [9]: 2.52
- Ratio PAL/TAL [1, 12]: 3.55
- Vmax (PAL) [1, 13]: 0.179 U/mg
- Km [1, 14]: 507 µM
- Ratio PAL/TAL [2, 12]: 1.87
- Vmax (PAL) [2, 13]: 0.239 U/mg
- Km [2, 14]: 448 µM
- Ratio PAL/TAL [3, 12]: 2.64
- Vmax (PAL) [3, 13]: 0.128 U/mg
- Km [3, 14]: 49.6 mM
- Ratio PAL/TAL [4, 12]: 0.80
- Vmax (PAL) [4, 13]: 0.777 U/mg
- Km [4, 14]: 2.33 mM
- Ratio PAL/TAL [5, 12]: 4.09
- Vmax (PAL) [5, 13]: 0.024 U/mg
- Km [5, 14]: 389 µM
- Ratio PAL/TAL [6, 12]: 2.79
- Vmax (PAL) [6, 13]: 0.083 U/mg
- Km [6, 14]: 584 µM
- Ratio PAL/TAL [7, 12]: 1.74
- Vmax (PAL) [7, 13]: 0.011 U/mg
- Km [7, 14]: 467 µM
